In patent US6875760B2 (Novo Nordisk A/S, priority 1999, dated 2005):

Each compound was assayed against T1, human glucagon receptor (Homo sapiens, UniProt P47871) (assay: Glucagon Binding Assay (III)). Settings: BHK cell membranes, WGA SPA beads, 125I-glucagon; read-out: Glu Bd Assay (III) IC50.
T1 construct: expressed in transfected cells; host or cells: BHK (baby hamster kidney) cells
T1 sequence (P47871 26-477): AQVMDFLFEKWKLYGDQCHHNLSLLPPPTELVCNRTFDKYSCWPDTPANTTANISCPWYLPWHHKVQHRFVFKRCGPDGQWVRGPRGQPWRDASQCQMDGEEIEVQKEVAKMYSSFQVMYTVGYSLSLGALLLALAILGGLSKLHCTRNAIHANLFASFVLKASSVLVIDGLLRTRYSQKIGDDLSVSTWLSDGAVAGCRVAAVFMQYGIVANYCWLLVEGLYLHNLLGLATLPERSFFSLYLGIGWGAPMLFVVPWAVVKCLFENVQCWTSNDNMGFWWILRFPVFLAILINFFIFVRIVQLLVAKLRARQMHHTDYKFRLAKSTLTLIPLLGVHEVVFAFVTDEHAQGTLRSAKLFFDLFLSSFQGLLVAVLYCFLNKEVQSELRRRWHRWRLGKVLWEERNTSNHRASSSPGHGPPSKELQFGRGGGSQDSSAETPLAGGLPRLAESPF
How it was run: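 Membranes from BHK cells transfected with the human receptor, prepared at 4 °C, were used in a WGA-bead scintillation proximity binding format. Plates were shaken for 4 hours, left to settle 8–48 hours and then counted. Non-specific binding was defined with 500 nM glucagon.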
`O=C(O)CCNC(=O)c1ccc(CN(Cc2ccccc2Cl)C(=O)Nc2ccc(OC(F)(F)F)cc2)cc1` [Example 431, 3-{4-[1-(2-Chlorobenzyl)-3-(4-trifluoromethoxyphenyl)ureidomethyl]benzoylamino}propionic acid] gave an IC50 of 2910 nM.
In the case of `O=C(O)CCNC(=O)c1ccc(CN(Cc2ccc(Cl)c(Cl)c2)C(=O)Nc2ccc(OC(F)(F)F)cc2)cc1` [Example 432, 3-{4-[1-(3,4-Dichlorobenzyl)-3-(4-trifluoromethoxyphenyl)ureidomethyl]benzoylamino}propionic acid], the IC50 is reported as 1800 nM.
In the case of `CC(C)c1ccc(CN(Cc2ccc(C(=O)NCCC(=O)O)cc2)C(=O)Nc2ccc(OC(F)(F)F)cc2)cc1` [Example 433, 3-{4-[1-(4-Isopropylbenzyl)-3-(4-trifluoromethoxyphenyl)ureidomethyl]benzoylamino}propionic acid], the IC50 is reported as 1250 nM.
`O=C(O)CCNC(=O)c1ccc(CN(C(=O)Nc2ccc(OC(F)(F)F)cc2)c2ccc(N3CCCCC3)cc2)cc1` [Example 434, 3-{4-[1-(4-Piperidin-1-ylphenyl)-3-(4-trifluoromethoxyphenyl)ureidomethyl]benzoylamino}propionic acid] was tested, and the IC50 was 126 nM.
With `CCCCOc1ccc(N(Cc2ccc(C(=O)NCCC(=O)O)cc2)C(=O)Nc2ccc(OC(F)(F)F)cc2)cc1` [Example 435, 3-{4-[1-(4-Butoxyphenyl)-3-(4-trifluoromethoxyphenyl)ureidomethyl]benzoylamino}propionic acid] the IC50 was 374 nM.
Compound `O=C(O)CCNC(=O)c1ccc(CN(C(=O)Nc2ccc(OC(F)(F)F)cc2)c2cnc3ccccc3c2)cc1` [Example 436, 3-{4-[1-Quinolin-3-yl-3-(4-trifluoromethoxyphenyl)ureidomethyl]benzoylamino}propionic acid] has an IC50 of 1990 nM.
`O=C(O)CCNC(=O)c1ccc(CN(C(=O)Nc2ccc(OC(F)(F)F)cc2)c2ccc(C(F)(F)F)cc2)cc1` [Example 437, 3-{4-[3-(4-Trifluoromethoxyphenyl)-1-(4-trifluoromethylphenyl)ureidomethyl]benzoylamino}propionic acid] showed an IC50 of 207 nM.
`O=C(O)CCNC(=O)c1ccc(CN(C(=O)Nc2ccc(OC(F)(F)F)cc2)c2ccc(OC(F)(F)F)cc2)cc1` [Example 438, 3-{4-[1,3-Bis(4-trifluoromethoxyphenyl)ureidomethyl]benzoylamino}propionic acid] was tested, and the IC50 was 288 nM.
`CCCc1ccc(N(Cc2ccc(C(=O)NCCC(=O)O)cc2)C(=O)Nc2ccc(OC(F)(F)F)cc2)cc1` [Example 439, 3-{4-[1-(4-Propylphenyl)-3-(4-trifluoromethoxyphenyl)ureidomethyl]benzoylamino}propionic acid] showed an IC50 of 184 nM.
`CCCCc1ccc(N(Cc2ccc(C(=O)NCCC(=O)O)cc2)C(=O)Nc2ccc(OC(F)(F)F)cc2)c(C)c1` [Example 440, 3-{4-[1-(4-Butyl-2-methylphenyl)-3-(4-trifluoromethoxyphenyl)ureidomethyl]benzoylamino}propionic acid] gave an IC50 of 509 nM.
Compound `CCOc1ccc(N(Cc2ccc(C(=O)NCCC(=O)O)cc2)C(=O)Nc2ccc(OC(F)(F)F)cc2)cc1` [Example 442, 3-{4-[1-(4-Ethoxyphenyl)-3-(4-trifluoromethoxyphenyl)ureidomethyl]benzoylamino}propionic acid] has an IC50 of 4100 nM.
With `O=C(O)CCNC(=O)c1ccc(CN(C(=O)Nc2cccc([N+](=O)[O-])c2)c2ccc(C3CCCCC3)cc2)cc1` [Example 443, 3-{4-[1-(4-Cyclohexylphenyl)-3-(3-nitrophenyl)ureidomethyl]benzoylamino}propionic acid] the IC50 was 167 nM.
Compound `CS(=O)(=O)c1cccc(NC(=O)N(Cc2ccc(C(=O)Nc3nn[nH]n3)cc2)c2ccc(C3CCCCC3)cc2)c1` [Example 444, 4-[1-(4-Cyclohexylphenyl)-3-(3-methylsulfonylphenyl)ureidomethyl]-N-(2H-tetrazol-5-yl)benzamide] has an IC50 of 42 nM.
With `CC(C)(C)C1CCC(N(Cc2ccc(C(=O)Nc3nn[nH]n3)cc2)C(=O)Nc2cccc(S(C)(=O)=O)c2)CC1` (stereo not drawn) [Example 445, 4-[1-(4-tert-Butylcyclohexyl)-3-(3-methylsulfonylphenyl)ureidomethyl]-N-(2H-tetrazol-5-yl)benzamide] the IC50 was 204 nM.
Work on `CCC(C)c1ccc(N(Cc2ccc(C(=O)Nc3nn[nH]n3)cc2)C(=O)Nc2cccc(S(C)(=O)=O)c2)cc1` (stereo not drawn) [Example 446, 4-[1-(4-sec-Butylphenyl)-3-(3-methylsulfonylphenyl)ureidomethyl]-N-(2H-tetrazol-5-yl)benzamide] yielded an IC50 of 522 nM.
With `CCCCc1ccc(N(Cc2ccc(C(=O)Nc3nn[nH]n3)cc2)C(=O)Nc2cccc(S(C)(=O)=O)c2)cc1` [Example 447, 4-[1-(4-Butylphenyl)-3-(3-methylsulfonylphenyl)ureidomethyl]-N-(2H-tetrazol-5-yl)benzamide] the IC50 was 327 nM.
For `CCC(C)c1ccc(N(Cc2ccc(C(=O)Nc3nn[nH]n3)cc2)C(=O)Nc2ccc(S(C)(=O)=O)cc2)cc1` (stereo not drawn) [Example 448, 4-[1-(4-sec-Butylphenyl)-3-(4-methylsulfonylphenyl)ureidomethyl]-N-(2H-tetrazol-5-yl)benzamide], the IC50 was 1480 nM.
`CC(C)(C)c1ccc(N(Cc2ccc(C(=O)Nc3nn[nH]n3)cc2)C(=O)Nc2cccc(S(C)(=O)=O)c2)cc1` [Example 449, 4-[1-(4-tert-Butylphenyl)-3-(3-methylsulfonylphenyl)ureidomethyl]-N-(2H-tetrazol-5-yl)benzamide] gave an IC50 of 195 nM.
For `CS(=O)(=O)c1cccc(NC(=O)N(Cc2ccc(C(=O)Nc3nn[nH]n3)cc2)c2ccc(OC(F)(F)F)cc2)c1` [Example 450, 4-[3-(3-Methylsulfonylphenyl)-1-(4-trifluoromethoxyphenyl)ureidomethyl]-N-(2H-tetrazol-5-yl)benzamide], the IC50 was 1790 nM.
Work on `CS(=O)(=O)c1ccc(NC(=O)N(Cc2ccc(C(=O)Nc3nn[nH]n3)cc2)c2ccc(OC(F)(F)F)cc2)cc1` [Example 451, 4-[3-(4-Methylsulfonylphenyl)-1-(4-trifluoromethoxyphenyl)ureidomethyl]-N-(2H-tetrazol-5-yl)benzamide] yielded an IC50 of 3450 nM.
In the case of `CCS(=O)(=O)c1cccc(NC(=O)N(Cc2ccc(C(=O)Nc3nn[nH]n3)cc2)c2ccc(OC(F)(F)F)cc2)c1` [Example 452, 4-[3-(3-Ethylsulfonylphenyl)-1-(4-trifluoromethoxyphenyl)ureidomethyl]-N-(2H-tetrazol-5-yl)benzamide], the IC50 is reported as 1410 nM.
`CCS(=O)(=O)c1cccc(NC(=O)N(Cc2ccc(C(=O)Nc3nn[nH]n3)cc2)c2ccc(C3CCCCC3)cc2)c1` [Example 453, 4-[1-(4-Cyclohexylphenyl)-3-(3-ethylsulfonylphenyl)ureidomethyl]-N-(2H-tetrazol-5-yl)benzamide] showed an IC50 of 72 nM.
With `CCS(=O)(=O)c1cccc(NC(=O)N(Cc2ccc(C(=O)Nc3nn[nH]n3)cc2)c2ccc(C(C)(C)C)cc2)c1` [Example 454, 4-[1-(4-tert-Butylphenyl)-3-(3-ethylsulfonylphenyl)ureidomethyl]-N-(2H-tetrazol-5-yl)benzamide] the IC50 was 214 nM.
In the case of `O=C(Nc1nn[nH]n1)c1ccc(CN(C(=O)Nc2ccc(S(=O)(=O)C(F)(F)F)cc2)c2ccc(C3CCCCC3)cc2)cc1` [Example 455, 4-[1-(4-Cyclohexylphenyl)-3-(4-trifluoromethylsulfonylphenyl)ureidomethyl]-N-(2H-tetrazol-5-yl)benzamide], the IC50 is reported as 53 nM.
With `CC(C)(C)c1ccc(N(Cc2ccc(C(=O)Nc3nn[nH]n3)cc2)C(=O)Nc2cccc(C(=O)O)c2)cc1` [Example 456, 3-{3-(4-tert-Butylphenyl)-3-[4-(2H-tetrazol-5-ylcarbamoyl)benzyl]ureido}benzoic acid] the IC50 was 2810 nM.
Work on `CC(C)(C)c1ccc(N(Cc2ccc(C(=O)Nc3nn[nH]n3)cc2)C(=O)Nc2cccc(C(=O)Oc3c(F)c(F)c(F)c(F)c3F)c2)cc1` [Example 457, 3-{3-(4-tert-Butylphenyl)-3-[4-(2H-tetrazol-5-ylcarbamoyl)benzyl]ureido}benzoic acid pentafluorophenyl ester] yielded an IC50 of 841 nM.
Compound `CNC(=O)c1cccc(NC(=O)N(Cc2ccc(C(=O)Nc3nn[nH]n3)cc2)c2ccc(C(C)(C)C)cc2)c1` [Example 458, N-Methyl-3-{3-(4-tert-butylphenyl)-3-[4-(2H-tetrazol-5-ylcarbamoyl)benzyl]ureido}benzamide] has an IC50 of 1810 nM.
`CC(C)(C)c1ccc(N(Cc2ccc(C(=O)Nc3nn[nH]n3)cc2)C(=O)Nc2cccc(C(N)=O)c2)cc1` [Example 459, 3-{3-(4-tert-Butylphenyl)-3-[4-(2H-tetrazol-5-ylcarbamoyl)benzyl]ureido}benzamide] was tested, and the IC50 was 2110 nM.
With `CCNC(=O)c1cccc(NC(=O)N(Cc2ccc(C(=O)Nc3nn[nH]n3)cc2)c2ccc(C(C)(C)C)cc2)c1` [Example 460, N-Ethyl-3-{3-(4-tert-butylphenyl)-3-[4-(2H-tetrazol-5-ylcarbamoyl)benzyl]ureido}benzamide] the IC50 was 1730 nM.
With `CN(C)C(=O)c1cccc(NC(=O)N(Cc2ccc(C(=O)Nc3nn[nH]n3)cc2)c2ccc(C(C)(C)C)cc2)c1` [Example 461, N,N-Dimethyl-3-{3-(4-tert-butylphenyl)-3-[4-(2H-tetrazol-5-ylcarbamoyl)benzyl]ureido}benzamide] the IC50 was 764 nM.
`CCN(CC)C(=O)c1cccc(NC(=O)N(Cc2ccc(C(=O)Nc3nn[nH]n3)cc2)c2ccc(C(C)(C)C)cc2)c1` [Example 462, N,N-Diethyl-3-{3-(4-tert-butylphenyl)-3-[4-(2H-tetrazol-5-ylcarbamoyl)benzyl]ureido}benzamide] showed an IC50 of 1160 nM.
For `CN(C)C(=O)c1cccc(NC(=O)N(Cc2ccc(C(=O)Nc3nn[nH]n3)cc2)c2ccc(C3CCCCC3)cc2)c1` [Example 463, N,N-Dimethyl-3-{3-(4-cyclohexylphenyl)-3-[4-(2H-tetrazol-5-ylcarbamoyl)benzyl]ureido}benzamide], the IC50 was 256 nM.
For `CCCCN(C)C(=O)c1cccc(NC(=O)N(Cc2ccc(C(=O)Nc3nn[nH]n3)cc2)c2ccc(C3CCCCC3)cc2)c1` [Example 464, N-Butyl-N-methyl-3-{3-(4-cyclohexylphenyl)-3-[4-(2H-tetrazol-5-ylcarbamoyl)benzyl]ureido}benzamide], the IC50 was 95 nM.
